Target: hMC1−5R
Experiment: Melanocortin receptor cAMP assay, result stated for all receptors together
Format: cell-based, human
Details: one bound printed for all receptors
Text: Example concentration response curves for selected PepNats in MC1R, MC3R, MC4R, MC5R radioligand binding assays and MC1R, MC3R, MC4R cAMP assays. Responses were normalized to reference agonist NDP -α-MSH and presented as % effect of control, with full competition in binding defined as -100% and full agonism in cAMP assays defined as […]
binding assay. Threshold to define a compound as active was set to -30% in binding assays and 20% in cAMP assays respectively. Data are from at least three independent experiments and error bars represent ± Standard Error of the […]
% s p e c ific b in d in g o f
(1 picture or pasted object on this page, not shown here) […]
to the elution profile of the crude product . The relevant fractions containing the desired product were collected, analyzed by RP-HPLC-MS and accordingly pooled and lyophilized.
HRMS were obtained on a Thermo Scientific LTQ Fleet Orbitrap mass spectrometer coupled to an Accela HPLC-System (HPLC column: Hypersyl GOLD, 50 mm x 1 mm, particle size 1.9 μm) equipped with an electron spray ionization source (ESI). The mass detection was recorded in the range of […]
2) B) Biochemical Assays Materials and Methods
Surface Plasmon Resonance (SPR)
All SPR experiments were conducted on a Biacore T200, S200 or 8K instrument (GE Healthcare) at 20 °C using HBS-P+ as running buffer (GE Healthcare). […]

Molecule `CN1C(=O)[C@H]2N[C@@H](c3ccc(cc3)C(=O)NCCCC[C@@H](C(=O)N[C@@H](Cc3ccc(O)cc3)C(N)=O)NC(=O)[C@H](CC(N)=O)NC(=O)[C@@H](Cc3ccccc3)NC(=O)[C@@H](Cc3ccccc3)NC(=O)[C@H](CCCNC(=N)N)NC(=O)[C@@H]1Cc1ccccc1)[C@H]1C(=O)N(c3ccccc3)C(=O)[C@H]12` [K1-minor, [II-FRffNK ]Y] has an EC50 greater than 100 µM.

— PMC7307906, “Macrocyclic Modalities Combining Peptide Epitopes and Natural Product Fragments” (Journal of the American Chemical Society, 2020)
